In article PMC2794939 (Biochemistry, 2009):

Test system: influenza virus A/M2-V27A/L38F
Type: cell-based, Influenza A/Udorn/72 virus (recombinant mutant)

| SMILES | Plaque count [plaques/well] | effect on plaque formation (count and size) |
| --- | --- | --- |
| NC12CC3CC(CC(C3)C1)C2 [Amantadine, amantadine] | 82 | failed to inhibit plaque formation |
| C1CCC2(CC1)CCN(C1=NCCN1)CC2 [BL-1743, 2-[3-azaspiro([5],[5])undecanol]-2-imidazoline] | 86 | failed to inhibit plaque formation |
| NC1CCC2(CCCCC2)CC1 [Compound 8, spiro[5.5]undecan-3-amine] | 37 | reduced |
